Test results taken from patent publication US20230101743A1, “SUBSTITUTED TRIAZINE COMPOUNDS AND USES THEREOF” (MUSC FOUNDATION FOR RESEARCH DEVELOPMENT, priority 2020, published 2023).

Experiments:
[1] = Solubilities in water and 1 x PBS buffer (UV-vis); format: physicochemical; conditions: for Solubility in 1.0 ml PBS buffer: 1 × PBS buffer; for Solubility in 1.0 ml PBS buffer / Solubility in 1.0 ml water: 25° C.; for solubility comparison: both water or 1 x PBS buffer
Description: The molar extinction co-efficients of exemplary cholesterol lowering compounds were measured in 1 x PBS buffer. The compounds were first dissolved in dimethyl sulfoxide. Solutions with a 0.5 mg/ml concentration were then prepared in DMSO. These solutions were diluted further with 1 x PBS by 100-fold, resulting in solutions with a 5 ug/ml concentration. The resulted diluted solutions were then measured and scanned using a UV-vis spectrophotometer for ultra-violet absorbances between 240 nm to 400 nm, using a UV 96-well microplate. The maximum UV absorbances and corresponding wavelengths were recorded (Table 1). The absorbance values were subtracted by that of a blank, 1 x PBS buffer containing […]. The volume of the solutions for UV measurements was 300 ul and the depth of the solutions was 0.7 cm. The molar extinction co-efficients were then calculated based on formula
The solubilities of the exemplary cholesterol lowering compounds were measured in water and 1 x PBS buffer. The compounds were first stirred with water and 1 x PBS buffer individually at room temperature for 1 h. The suspensions were then centrifuged for 2 min. The top clear solutions were filtered through filter paper, resulting in mother liquids, which were centrifuged again and diluted with 1 x PBS buffer for 10-fold for the solubilities in water and 100-fold the solubilities in 1 x PBS buffer. The resulted solutions were measured using a UV-vis spectrophotometer for UV absorbances with the maximum absorbances. The values were subtracted by that of a blank, 1 x PBS buffer. The corrected absorbances were then used to calculate the corresponding concentrations using the formula (1) and extinction coefficients (Table 1) shown above. The individual concentrations were then used to calculate the solubilities in 1.0 mL of water and 1 x PBS buffer.
The compounds were dissolved in DMSO to either 50 mg/ml, 10 mg/ml or 5 mg/ml solutions, which were diluted to 0.5 mg/ml with DMSO. These solutions were then diluted to 5 ug/ml with 1 x PBS buffer. The resulted solutions were then measured in a UV-vis spectrophotometer for UV scanning from 240 nm to 400 nm at 25° C. The absorbance values were subtracted by that of a blank, 1 x PBS buffer containing DMSO. The total volume of the solutions was 300 uL and the path length for each well was 0.7 cm in a UV 96-well plate. The extinction coefficients of the compounds were then calculated based on molar concentrations and the corrected UV absorbances at the maximum absorption (Table 1).
The mixtures wer stirred for 1 h at room temperature, transferred to 1.5 mL Eppendorf tubes, and centrifuged for 2 min. The clear solutions were filtered through filter papers, affording clear solutions, which were centrifuged again for 2 min. The top clear solutions were diluted by 1 x PBS buffer by 10-fold for the solubilities in water and 100-fold for the solubilities in 1 x PBS buffer. The new clear solutions were then measured individually using a UV-vis spectrophotometer and a UV 96-well microplate. The absorbance values were subtracted by that of a blank, 1 x PBS buffer. Concentrations and solubilities of the compounds were then calculated using their extinct coefficients and the corrected UV absorbances at the maximum absorptions (Table 1).

[2] = tested on: intracellular APOB, LAMP1, and SORTILIN; assay: Confocal immunofluorescence of intracellular APOB, LAMP1 and SORTILIN; format: cell-based, human; conditions: 48 μg/mL, 24 hours
Description: Human iPSC-derived hepatocytes (iPSC-Heps) were treated with 48 μg/mL of DL-9 for 24 hours. Immunofluorescence of intracellular APOB, LAMP1, and SORTILIN was detected by specific antibodies. […] Extracellular APOB was measured by ELISA analysis. APOB level was normalized to DMSO treated group (FIG. 13C). In FIG. 13D intracellular APOB was determined via western blot using a specific anti-APOB antibody. […] Data are shown as mean±SD of triplicates (n=3). Statistical analysis was performed using the student t-test.
For hepatic marker expression analysis, human iPSC-derived hepatocytes (Day 20) were treated with 2 μg/mL of DL-1 for 24 hours. Cells were fixed in 4% paraformaldehyde (PFA) and penetrated with 0.1% Triton-X-100. Cells were incubated with primary antibodies (ALB, 1:1000, Dako; HNF4-a, 1:1000, Santa Cruz) overnight at 4 degrees and then switched to secondary antibodies (Alexa Flour 488 goat anti-rabbit, 1:1000, Invitrogen; Alexa Flour 594 rabbit anti-mouse, 1:2000, Invitrogen). Images were taken using Bio-Rad Zoe™ Fluorescent Cell Imager (Bio-Rad). For intracellular APOB localization, iPSC-heps were treated with 0, 3, 12, 48 μg/mL of DL-9 for 24 hours, and cells were fixed in 4% PFA followed by 0.1% Triton-X-100 penetration. […] Integrated fluorescent intensity was normalized by total cell counts, which is determined by DAPI staining.

[3] = tested on: Hepatic neutral lipid; assay: Neutral lipid staining (BODIPY 493/503) in iPSC-derived hepatocytes; format: cell-based, human; conditions: 72 hours; DL-1 2 μg/mL, CP-346086 20 nM
Description: H. Human iPSC derived hepatocytes were treated with DL-1 (2 μg/mL) and MTTP inhibitor CP-346086 (20 nM) for 72 hours. […] (A) Hepatic neutral lipid was determined by staining with 2 μM of BODIPYTM 493/503 for 15 mins and fixed with 4% PFA for microscopy. Nuclei were stained blue by DAPI. Scale bar=100 μm. […] Data are shown as mean±SEM of ten replicates (n=10); ***p<0.001.
K3 iPSC-derived hepatocytes (Day 20) were treated with or without 2 μg/mL of DL-1 or 20 nM of CP-346086 (Sigma) for 72 hours with daily medium change. At the time-point of interest, cells were treated with 2 μM of BODIPY® 493/503 staining solution (ThermoFisher) and 5 μg/mL of Hoechst 33342 (ThermoFisher) in PBS at 37 degrees for 15 minutes. Cells were washed with sterile PBS three times and then fixed with 4% PFA. Fluorescence images were taken using Bio-rad Zoeυ Fluorescent Cell Imager (Bio-Rad) and KEYENCE BZ-X800E Fluorescence Microscope (KEYENCE). Integrated fluorescent intensity was normalized by total cell counts, which is determined by DAPI staining.

Row | Compound | Solubility in 1.0 ml PBS buffer [1] | solubility comparison [1] | Solubility in 1.0 ml water ([1]; water) | colocalization of APOB and SORTILIN [2] | solubility relative to that of DL-9 in 1 x PBS buffer ([1]; 1 x PBS buffer) | solubility relative to that of DL-9 in water ([1]; water) | hepatic lipid accumulation (neutral lipid level) [3]
1 | CC(C)(C)c1cc(Nc2nc(S)nc(S)n2)cc(C(C)(C)C)c1O [DL-9, {4-[(3,5-di-tert-butyl-4-hydroxyphenyl)amino]-6-sulfanidyl-1,3,5-triazin-2-yl}sulfanide] | 91 µg | best solubility among the first three compounds | 0.40 µg | colocalization of APOB and SORTILIN | – | – | –
2 | Cc1cc(Nc2nc(S)nc(S)n2)cc(C)c1O (racemic) [DL-29, 6-(3,5-dimethyl-4-hydroxyphenylamino)-1,3,5-triazine-2,4-dithiol] | 686 µg | better solubilities than that for DL-9 | 2.22 µg | – | – | – | –
3 | Sc1nc(S)nc(Nc2cc(Cl)cc(Cl)c2)n1 (racemic) [DL-5, 6-[(3,5-dichlorophenyl)amino]-1,3,5-triazine-2,4-dithiol] | 61 µg | – | 0.27 µg | – | – | – | –
4 | CC(C)(C)c1cc(Nc2nc(S)nc(S)n2)c(O)c(C(C)(C)C)c1 (racemic) [DL-31, 6-(3,5-di-tert-butyl-2-hydroxyphenylamino)-1,3,5-triazine-2,4-dithiol] | 477 µg | better solubilities than that for DL-9 | 1.63 µg | – | ~5 fold | about 4 fold | –
5 | COc1cc(Nc2nc(S)nc(S)n2)cc(OC)c1O (racemic) [DL-32] | 786 µg | better solubilities than that for DL-9 | 2.01 µg | – | – | – | –
6 | O=C(Nc1ccc2c(c1)CCN(Cc1ncn[nH]1)C2)c1ccccc1-c1ccc(C(F)(F)F)cc1 [CP-346086, reference compound] | – | – | – | – | – | – | significant increase of neutral lipid level
7 | C#CCOCCOCCOCCOCCOc1c(C(C)(C)C)cc(Nc2nc(S)nc(S)n2)cc1C(C)(C)C [DL-33, 6-(3,5-di-tert-butyl-4-(2-(2-(2-(2-(2-propyn-1-yloxy)ethoxy)ethyoxy)etoxy)ethoxy)-phenylamino)-1,3,5-triazine-2,4-dithiol] | 186 µg | better solubilities than that for DL-9 | 1.18 µg | – | – | – | –
8 | CC(C)(C)c1cc(Nc2nc(S)nc(S)n2)cc(C(C)(C)C)c1OCCO (racemic) [DL-27, 6-(3,5-di-tert-butyl-4-(2-hydroxyethoxy)-phenylamino)-1,3,5-triazine-2,4-dithiol] | 257 µg | better solubilities than that for DL-9 | 1.78 µg | – | – | – | –
9 | Oc1c(Cl)cc(Nc2nc(S)nc(S)n2)cc1Cl (racemic) [DL-28, 6-(3,5-dichloro-4-hydroxyphenylamino)-1,3,5-triazine-2,4-dithiol] | 348 µg | better solubilities than that for DL-9 | 1.25 µg | – | – | – | –
10 | CC(C)(C)c1cc(C(C)(C)C)c(Nc2nc(S)nc(S)n2)cc1O (racemic) [DL-30, 6-(2,4-di-tert-butyl-5-hydroxyphenylamino)-1,3,5-triazine-2,4-dithiol] | 459 µg | better solubilities than that for DL-9 | 1.35 µg | – | – | – | –
